Counter-ions that a name gives are not always drawn.
How the values were obtained:
[1] = test system: Trx9 cells (MCF-7 clones expressing thioredoxin); test: Superoxide production in cell lysate by SOD-inhibitable reduction of ferricytochrome c; type: biochemical, human; conditions: Trx9 compared to vector-transfected cells; 10 μM drug
Protocol: Determination of superoxide production by reduction of ferricytochrome c. Superoxide production was measured as superoxide dismutase (SOD) inhibitable reduction of ferricytochrome c (Azzi et al. 1975). Cells were sonicated in potassium phosphate buffer (0.05M, pH 7.8 plus 1 mM EDTA), centrifuged and the supernatant was used for the assay. To determine the superoxide generation in the cell lysate, the supernatant was incubated with 10 μM drug and 10 μM cytochrome c, with or without 1U SOD to determine SOD inhibitable rate. The specificity of thioredoxin mediated superoxide generation in the supernatant was detected by pre-incubation of cell lysates with anti-human thioredoxin antibody (American Diagnostica, Greenwich, Conn.) for 15 min. All reactions were performed in triplicate. The reduction of ferricytochrome c was measured both in kinetic and end point mode with path check on for 1 hr duration at a wavelength of 550 nm using a Spectramax 190 plate reader (Molecular Devices). Total protein was quantified using Bradford protein assay (Biorad) and the superoxide generation was determined per milligram of protein in the extracts.

[2] = test system: Trx9 cells (MCF-7 clones expressing thioredoxin); test: In situ detection of ROS by DCF-DA fluorescence; type: cell-based, human; conditions: Trx9 compared to vector cells
Protocol: In situ detection of superoxide by fluorescent probe DiCarboxyFluorescein-DiAcetate (DCF-DA). Cells were grown in chambered glass slides (Nunc) to a final density of 25,000 cells per well.

[3] = molecular target: T1, E. coli thioredoxin reductase-thioredoxin system (Escherichia coli, UniProt P0A9P4); test: Superoxide detection by cytochrome c reduction assay with thioredoxin system; type: biochemical
T1 construct: purchased American Diagnostica Inc (thioredoxin reductase); Promega Inc (thioredoxin)
T1 sequence (P0A9P4 2-321): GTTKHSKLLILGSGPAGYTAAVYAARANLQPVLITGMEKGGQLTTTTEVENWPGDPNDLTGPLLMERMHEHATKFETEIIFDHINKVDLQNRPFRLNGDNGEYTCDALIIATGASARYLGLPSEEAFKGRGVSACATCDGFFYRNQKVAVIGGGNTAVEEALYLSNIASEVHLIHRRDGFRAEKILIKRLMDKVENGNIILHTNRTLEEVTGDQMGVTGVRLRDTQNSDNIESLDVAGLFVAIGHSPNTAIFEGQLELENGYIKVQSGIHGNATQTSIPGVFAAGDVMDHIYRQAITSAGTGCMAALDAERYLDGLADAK
Protocol: Superoxide detection by cytochrome c reduction assay. Superoxide (O2—) generated in the process of redox-cycling was detected by SOD inhibitable rate of ferricytochrome c reduction (Das et al., 2000). The reaction mixture contained 0.05 M potassium phosphate buffer (pH 7.78), 1 mM EDTA, 10 μM cytochrome c and 200 μM NADPH. […] The rate of […] of cytochrome c was measured at 550 nm for 0-15 minutes using Shimadzu UV-1601PC in kinetic mode. Reaction blank contained potassium phosphate buffer, cytochrome c and NADPH with or without SOD, and controls included 0.35-0.7 μg TR and /or Trx in buffer. All reactions were performed in triplicate.

E. coli thioredoxin = molecular target: T2, E. coli thioredoxin (Escherichia coli, UniProt P0AA25); test: Thioredoxin redox state by carboxymethylation and western analysis; type: biochemical; conditions: TR and doxorubicin
T2 construct: purchased Promega Inc (thioredoxin); American Diagnostica Inc (thioredoxin reductase)
T2 sequence (P0AA25 2-109): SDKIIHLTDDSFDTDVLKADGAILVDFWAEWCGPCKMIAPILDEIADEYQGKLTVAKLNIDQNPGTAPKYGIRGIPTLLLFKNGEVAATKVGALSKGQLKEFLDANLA
Protocol: Carboxymethylation of thioredoxin. In order to analyze the possible role of thioredoxin in the redox-cycling of anthracyclines the redox status of thioredoxin was determined by carboxymethylation at the end of assay. Carboxymethylation was done as described previously (Das et al., 1997). Equal volume of carboxymethylation buffer (0.1 M Tris; pH 8.8, 12 mg/ml iodoacetic acid, 3 mM EDTA, 7 M guanidine hydrochloride, and 0.5% Triton X-100, equilibrated with nitrogen for 1 h) was added and incubated at 37° C. in the dark for 45 min. After incubation the excess reagent was removed using Sephadex G-25 spin column, and the elute was used for western blot detection of thioredoxin.
Western analysis of thioredoxin redox state. […] The protein was transferred to PVDF membrane using a miniprotein transblot apparatus (Bio-Rad). The PVDF membrane was washed and incubated with mouse anti-E. coli Trx IgG (MBL, Nagoya, Japan). After washing, the blot was incubated with anti Mouse IgG- horseradish peroxidase conjugate for 1 h at room temperature. Binding of secondary antibody was detected using an enhanced chemiluminescence (ECL Plus) detection system (Amersham Pharmacia Biotech, Piscataway, N.J.). Western blot was quantified using densitometric analysis software (NIH Image 1.61).

[4] = molecular target: T3, cytochrome P450 reductase (Oryctolagus cuniculus, UniProt P00389); test: Cytochrome P450 reductase mediated SOD-inhibitable superoxide generation; type: biochemical, rabbit; conditions: 10 μM doxorubicin, Trx-SH alone as electron donor, absence of NADPH
T3 construct: purchased Sigma Chemicals (St. Louis, Mo.); host or cells: rabbit liver
T3 sequence (P00389 1-679): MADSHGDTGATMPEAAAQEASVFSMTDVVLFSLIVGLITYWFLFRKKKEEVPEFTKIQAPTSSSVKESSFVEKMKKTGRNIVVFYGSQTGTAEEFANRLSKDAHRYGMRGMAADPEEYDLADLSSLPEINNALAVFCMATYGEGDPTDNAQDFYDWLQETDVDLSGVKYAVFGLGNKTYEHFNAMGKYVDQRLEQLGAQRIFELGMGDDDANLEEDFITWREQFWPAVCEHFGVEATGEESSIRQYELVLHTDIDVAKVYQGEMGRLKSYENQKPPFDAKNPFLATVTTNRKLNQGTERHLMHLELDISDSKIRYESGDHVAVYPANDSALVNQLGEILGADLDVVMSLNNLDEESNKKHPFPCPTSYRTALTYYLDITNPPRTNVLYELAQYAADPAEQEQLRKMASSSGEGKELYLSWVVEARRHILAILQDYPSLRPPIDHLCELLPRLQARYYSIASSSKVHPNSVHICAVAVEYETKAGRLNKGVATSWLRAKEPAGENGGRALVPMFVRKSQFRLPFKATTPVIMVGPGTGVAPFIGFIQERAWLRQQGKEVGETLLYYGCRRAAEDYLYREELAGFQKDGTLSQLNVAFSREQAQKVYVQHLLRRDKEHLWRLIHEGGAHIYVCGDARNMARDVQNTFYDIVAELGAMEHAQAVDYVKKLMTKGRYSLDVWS
Protocol: Superoxide detection by cytochrome c reduction assay. Superoxide (O2—) generated in the process of redox-cycling was detected by SOD inhibitable rate of ferricytochrome c reduction (Das et al., 2000). […] Reaction blank contained potassium phosphate buffer, cytochrome c and NADPH with or without SOD, and controls included 0.35-0.7 μg TR and /or Trx in buffer. All reactions were performed in triplicate.

[5] = cited from earlier work
A549 cells [6] = test: ROS detection by DCF-DA fluorescence; type: cell-based, human
Protocol: In situ detection of superoxide by fluorescent probe DiCarboxyFluorescein-DiAcetate (DCF-DA). […] Cells were pre-incubated with 20 μM DCF-DA (Sigma, St. Louis, Mo.) in 20 mM Hepes in Phosphate Buffered Saline (PBS) containing bovine serum albumin (BSA, 5 mg/ml) at 37° C. for 30 min followed by washing with PBS buffer, and the drug was added and observed for 10-15 min in a Nikon laser confocal microscope using laser beam wavelength 488 nm analyzed by Ultraview software (Perkin-Elmer).

p53 in A549 cells = test: EMSA of p53 DNA binding; type: cell-based, human; conditions: E. coli Trx 32 μM 16 h followed by daunomycin 1 μM 4 h
Protocol: Nuclear Extract preparation. Nuclear extract was prepared as described previously (Das, 2001). […] The extracts were then centrifuged at 14,000 rpm for 25 min and the supernatant was saved as nuclear extract in −70° C. for further experiments. Protein was quantified using Bradford protein assay (Biorad).
Electrophoretic Mobility shift assay (EMSA). For the EMSA the p53 consensus oligonucleotide was obtained from Genosys 5′-[…]-3′ (SEQ ID NO:9) and end labeled using T4 Poly nucleotide kinase (New England Biolabs, Beverly, Mass.) and [γ-^32P] ATP (Perkin Elmer, Boston, Mass.) in 10× kinase buffer supplied with the enzyme. […] The nuclear protein was separated by electrophoresis using 4% native polyacrylamide gel and 0.25× of TBE (Tris-Borate-EDTA) as running buffer. The gels were dried and exposed to Kodax Biomax X-ray film overnight.

A549 cells [7] = conditions: E. coli thioredoxin 32 μM 16 hr followed by daunomycin 1 μM 4 hr
Source text: TUNEL assay. Apoptotic cells were detected using In Situ Cell Death detection, POD kit (Roche Molecular Biochemicals, Indianapolis, Ind.). Apoptotic DNA strand breaks were identified by labeling 3′-OH termini with fluorescein-dUTP using Terminal deoxy Transferase as per manufacturer's protocol. For this assay cells were allowed to adhere overnight in chambered glass slides (Nunc) to a final density of 25,000 cells per well. Followed by treatment with the appropriate concentration of drugs the media was removed and washed twice with PBS containing 1% BSA and the cells fixed in 4% paraformaldehyde for 30 min and washed with PBS containing 1% BSA. The cells were then permeabilized with 0.1% Triton X-100 in 0.1% sodium citrate for 2 min on ice and washed twice with PBS containing 1% BSA. The labeling reaction was performed using FITC labeled dUTP along with other nucleotides by terminal deoxynucleotidyl transferase for 60 mins in dark at 37° C. in humidified chamber. The cells were washed with PBS-1% BSA, mounted onto a slide, and the incorporated fluorescein-dUTP was analyzed using Nikon laser confocal microscope.

[8] = molecular target: T4, human thioredoxin reductase (Homo sapiens, UniProt Q16881); conditions: cited from earlier work
T4 sequence (Q16881 151-649 limits assumed): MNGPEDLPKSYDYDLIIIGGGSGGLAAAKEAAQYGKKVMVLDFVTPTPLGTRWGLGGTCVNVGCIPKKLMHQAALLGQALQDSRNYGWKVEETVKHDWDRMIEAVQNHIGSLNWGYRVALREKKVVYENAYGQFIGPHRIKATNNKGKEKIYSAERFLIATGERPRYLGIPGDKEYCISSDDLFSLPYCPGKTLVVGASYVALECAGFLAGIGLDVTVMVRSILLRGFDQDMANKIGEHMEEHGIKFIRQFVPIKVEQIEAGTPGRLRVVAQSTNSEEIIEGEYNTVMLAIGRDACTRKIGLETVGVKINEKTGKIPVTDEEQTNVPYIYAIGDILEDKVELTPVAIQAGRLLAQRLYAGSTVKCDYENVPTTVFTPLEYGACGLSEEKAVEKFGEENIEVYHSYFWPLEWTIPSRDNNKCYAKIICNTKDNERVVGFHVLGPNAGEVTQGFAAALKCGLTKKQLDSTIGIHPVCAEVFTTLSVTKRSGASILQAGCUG

COc1cccc2c1C(=O)c1c(O)c3c(c(O)c1C2=O)C[C@@](O)(C(=O)CO)C[C@@H]3O[C@H]1C[C@H](N)[C@H](O)[C@H](C)O1 [doxorubicin, 5,12-Naphthacenedione, (8 s-cis)-10-[(3-amino-2,3,6-trideoxy-a-L-lyxo-hexopyranosyl)oxy]-7,8,9,10-tetrahydro-6,8,11-trihydroxy-8-(hydroxyacetyl)-1-methoxy-hydrochloride]
O2— production [1]: significantly higher level of O2— | DCF-DA fluorescence (oxidation of DCF-DA) [2]: enhanced fluorescence | levels of O2— generated ([3]; drug 10 μM with thioredoxin reductase alone): significantly higher levels of O2— | SOD inhibitable rate of ferricytochrome c reduction ([3]; drug alone, 10 μM): did not show significant level | rate of superoxide generation as compared to daunomycin ([3]; thioredoxin reductase alone or thioredoxin reductase-thioredoxin system, 10 μM drug): two fold increase | level of Trx-S2 (oxidized thioredoxin) (E. coli thioredoxin; 28.7% without doxorubicin): 53% | level of reduced thioredoxin (E. coli thioredoxin; Trx, 71.3% in thioredoxin-thioredoxin reductase system only): 47% | SOD inhibitable O2— generation [4]: generated O2— | excreted into the urine ([5]; in vivo): a few percent | elimination half-life ([5]; intravenous): about 30 hr | absorption ([5]; oral): poorly absorbed

E. coli thioredoxin: E. coli thioredoxin obtained from Promega; sequence of SEQ ID NO:4
levels of O2— generated ([3]; addition of 3.2 μM Trx to thioredoxin reductase with daunomycin or doxorubicin): further enhanced the levels of O2— | rate of O2— generation with doxorubicin ([3]; thioredoxin from 1.6 to 6.4 μM, 0.35 μg thioredoxin reductase, 10 μM doxorubicin): proportional increase in the rate of O2— generation | ROS generation (DCF-DA) (A549 cells [6]; E. coli thioredoxin only (32 μM, 16 hr)): No ROS were detected | ROS generation (DCF-DA) (A549 cells [6]; pretreated with E. coli thioredoxin (32 μM, 16 hr) followed by 1 μM daunomycin): significantly higher level of ROS generation | p53 DNA binding (p53 in A549 cells): increased p53 DNA binding | TUNEL positive nuclei (A549 cells [7]): increase in TUNEL positive nuclei | Km as a substrate for human thioredoxin reductase [8]: 35 µM
